Data on six compounds can be found in patent US20260042754A1, “Substituted Bicyclic Heteroaryl Sulfonamide Derivatives for the Treatment of Cancer” (NODUS ONCOLOGY LIMITED, priority 2022, published 2026).

The target of assay [1] is Recombinant His-tagged human PARG protein (Homo sapiens (Human), UniProt Q86W56). As to the kind of experiment: PARG enzymatic assay (TFMU-ADPr fluorescence). Format: biochemical. The note with it: 1 nM enzyme, 200 μM TFMU-ADPr, read after 30 minutes. As for the experimental part:
Inhibition of PARG enzymatic activity by compounds was determined as follows: Recombinant His-tagged human PARG protein expressed in Sf21 insect cells (Adipogen AG, #40T-0022) was aliquoted and stored at −80° C. until use. The artificial enzyme substrate 4-(trifluoromethyl)umbelliferone (TFMU)-ADPr was prepared essentially as described (Drown B S et al, Cell Chemical Biology 2018) and stored at −20° C. as 10 mM stock solutions in DMSO (dimethyl sulfoxide) until use. For reactions, typical final concentration of the enzyme was 1 nM and of the TFMU-ADPr 200 μM. Reactions were carried out in black 384-well low volume round bottom assay plates (Corning, #4514) in a final volume of 10 μL. To this end, PARG was diluted to 1.67 nM in reaction buffer (50 mM K2HPO4, 50 mM KCl, 10 mM β-mercaptoethanol, pH 7.4) and 6 μL were dispensed per assay well using a multichannel pipette. Then compound was dispensed into each well using an Echo dispenser (BeckmanCoulter) to yield the pre-specified final concentration of the range of concentrations to be tested (typically 8-point serial concentrations ranging from either from 0.01 to 10 μM, or from 0.001 to 1 μM, or from 0.0001 to 0.1 μM), and being volume-corrected with 100% DMSO (0.5% final DMSO concentration in reaction mixtures). Plates were mixed, and after 15 minutes 4 μL TFMU-ADPr was added into each well using a multichannel pipette followed by brief mixing. Fluorescence intensity signals were then measured after 30 minutes on an EnVision microplate reader (PerkinElmer) using 380/10 nm and 535/25 nm filters for the excitation and emission, respectively (gain: 150). The assay window was set using DMSO control (top) and a control containing no PARG enzyme (bottom). Delta values were plotted as concentration-response curves fitted to a sigmoidal 4-parameter logistic model to calculate IC50 values (Scigilian Analyze).

Assay [2] addresses human PARG (PARG-NanoLuc fusion in HEK293T cells) (Homo sapiens (Human), UniProt Q86W56). As to the kind of experiment: PARG NanoBRET-based cellular target engagement assay. Format: cell-based. The following applies: HEK293T cells transfected with PARG-NanoLuc, NanoBRET probe 0.89 μM, 2 hours; read-out: PARG TE IC50. As for the experimental part:
PARG Nano-luciferase construct: The PARG-NanoLuc® fusion vector was generated by Promega, by inserting the full length human PARG cDNA sequence encoding the 976 amino acid protein (Gene ID: 8505, UniProt: Q86W56) into the pNLF1-C [CMV/Hygro] vector (C-terminal fusions with NanoLuc® enzyme).
PARG target engagement tracer synthesis: The NanoBRET tracer for PARG was prepared following a previously reported general tracer synthesis procedure.
PARG Probe Displacement Assay Using NanoBRET: HEK293T (DSMZ #ACC 635) cells transiently transfected with the PARG-NanoLuc fusion construct were resuspended in phenol red-free OptiMEM (Gibco #11058-021) to a concentration of 2.4×10^5 cells/mL. 9 μL per well were then added to a white 384-well low volume microplate (Greiner #784080) and incubated for 24 hours under standard growth conditions.
Then compound was dispensed into each well using an Echo dispenser (BeckmanCoulter) to yield the pre-specified final concentration of the range of concentrations to be tested (typically 8-point serial concentrations ranging from either from 0.01 to 10 μM, or from 0.001 to 1 μM, or from 0.0001 to 0.1 μM), and being volume-corrected with 100% DMSO (0.5% final DMSO concentration in reaction mixtures).
After mixing and an incubation at room temperature for 15 min 1 μl of the NanoBRET probe (at 0.89 μM final concentration) was added to the microplate using a multichannel pipette. The plate was mixed and incubated in a 5% CO2 environment at 37° C. for 2 hours, and then 5 μL per well of a solution consisting of a 1:31.25 dilution of Nano-Glo substrate (Promega) and a 1:500 dilution of NanoLuc extracellular inhibitor (Promega) in phenol red-free OptiMEM was added to each well followed by another mixing step. Filtered luminescence was measured on an EnVision plate reader (PerkinElmer) equipped with a 460 nm filter (donor) and a 645 nm filter (acceptor). BRET ratios were plotted as concentration-response curves fitted to a sigmoidal 4-parameter logistic model to calculate IC50 values (Scigilian Analyze).

Sequence of Recombinant His-tagged human PARG protein (Q86W56 whole entry): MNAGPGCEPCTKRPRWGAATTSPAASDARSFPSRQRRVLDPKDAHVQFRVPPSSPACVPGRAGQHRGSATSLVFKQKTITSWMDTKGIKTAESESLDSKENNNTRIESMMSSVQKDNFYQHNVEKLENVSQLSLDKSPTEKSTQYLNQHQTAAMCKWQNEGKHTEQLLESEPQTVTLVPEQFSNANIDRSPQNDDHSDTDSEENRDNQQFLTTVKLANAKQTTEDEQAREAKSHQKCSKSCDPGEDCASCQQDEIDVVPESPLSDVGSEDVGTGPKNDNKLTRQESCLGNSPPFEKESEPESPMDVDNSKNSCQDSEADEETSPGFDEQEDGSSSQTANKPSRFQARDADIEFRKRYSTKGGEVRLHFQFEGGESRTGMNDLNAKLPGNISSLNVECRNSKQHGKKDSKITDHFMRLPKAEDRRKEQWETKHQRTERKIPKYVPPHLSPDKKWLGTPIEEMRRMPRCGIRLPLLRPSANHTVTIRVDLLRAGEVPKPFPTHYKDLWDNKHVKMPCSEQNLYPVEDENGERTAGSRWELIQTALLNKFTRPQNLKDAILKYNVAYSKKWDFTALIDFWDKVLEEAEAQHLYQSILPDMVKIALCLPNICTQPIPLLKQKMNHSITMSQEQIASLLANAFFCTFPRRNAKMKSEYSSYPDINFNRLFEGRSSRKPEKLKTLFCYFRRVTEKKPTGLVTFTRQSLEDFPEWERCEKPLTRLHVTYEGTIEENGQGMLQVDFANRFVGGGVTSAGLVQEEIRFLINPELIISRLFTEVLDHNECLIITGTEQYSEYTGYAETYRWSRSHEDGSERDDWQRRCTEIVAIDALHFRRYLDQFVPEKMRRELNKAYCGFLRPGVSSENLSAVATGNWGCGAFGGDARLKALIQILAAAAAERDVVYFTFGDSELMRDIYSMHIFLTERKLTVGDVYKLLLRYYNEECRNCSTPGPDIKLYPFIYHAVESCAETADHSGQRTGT
Sequence of human PARG (PARG-NanoLuc fusion in HEK293T cells) (Q86W56 whole entry, the tested form may be a part): as the sequence (Q86W56 whole entry) above

`CO/N=c1\[nH]c2ccc(S(=O)(=O)NC3(C)CC3)cc2c(=O)n1Cc1cnn(C(F)(F)F)c1` [Example 6, 2-methoxyimino-N-(1-methylcyclopropyl)-4-oxo-3-[[1-(trifluoromethyl)pyrazol-4-yl]methyl]-1H-quinazoline-6-sulfonamide]: the IC50 in assay [1] and in assay [2] was 100 to 1000 nM throughout.

For `CC(C)O/N=c1\[nH]c2ccc(S(=O)(=O)NC3(C)CC3)cc2c(=O)n1Cc1cnn(C)c1` [Example 11, 2-isopropoxyimino-N-(1-methylcyclopropyl)-3-[(1-methylpyrazol-4-yl)methyl]-4-oxo-1H-quinazoline-6-sulfonamide], the half-inhibitory concentration (IC50) was < 30 nM in assay [1] and 30 to 99 nM in assay [2].

In the case of `CO/N=c1\[nH]c2c(N3CCN(C(=O)C(F)(F)C4(O)CCC4)[C@H](C)C3)cc(S(=O)(=O)NC3(C)CC3)cc2c(=O)n1Cc1cnn(C)c1` (single isomer, unassigned) [Example 43], the IC50 in assay [1] and in assay [2] was < 30 nM in each case.

On to `CO/N=c1\[nH]c2c(N3CCN(C(=O)C(F)(F)F)[C@H](C)C3)cc(S(=O)(=O)NC3(C)CC3)cc2c(=O)n1Cc1cnn(C)c1` [Example 42, (R,E)-2-(methoxyimino)-3-((1-methyl-1H-pyrazol-4-yl)methyl)-8-(3-methyl-4-(2,2,2-trifluoroacetyl)piperazin-1-yl)-N-(1-methylcyclopropyl)-4-oxo-1,2,3,4-tetrahydroquinazoline-6-sulfonamide], for which the IC50 in assay [1] and in assay [2] was < 30 nM each time.

For `CO/N=c1\[nH]c2c(-c3ccc(C4(O)CCC4=O)cc3)cc(S(=O)(=O)NC3(C)CC3)cc2c(=O)n1Cc1cnn(C)c1` (stereo not drawn) [Example 22, (E)-8-(4-(1-hydroxy-2-oxocyclobutyl)phenyl)-2-(methoxyimino)-3-((1-methyl-1H-pyrazol-4-yl)methyl)-N-(1-methylcyclopropyl)-4-oxo-1,2,3,4-tetrahydroquinazoline-6-sulfonamide], the results for the IC50 in assay [1] and in assay [2] were < 30 nM and 30 to 99 nM, respectively.

Consider `CO/N=c1\[nH]c2c(N3CCN(C(=O)N(C)C4CC4)[C@H](C)C3)cc(S(=O)(=O)NC3(C)CC3)cc2c(=O)n1Cc1cnn(C)c1` (single isomer, unassigned) [Example 44], for which the IC50 in assay [1] and in assay [2] was < 30 nM throughout.
